Test results reported in patent US20180271863A1, “TARGETING P2 PURINERGIC RECEPTORS TO TREAT HEPATOCELLULAR CARCINOMA (HCC)” (Baylor College of Medicine, priority 2015, published 2018).
Entries after “also recorded” stand apart in the source; their conditions may differ.

Tests used:
human hepatocytes [1] = test: Western blotting of cyclin proteins in human hepatocytes; assay type: cell-based
Experimental: Normal human primary hepatocytes isolated from healthy adults (no known history of HCC) in suspension or freshly-frozen prior to shipment (Cryoport Systems, CA) were purchased from Triangle Research Labs, NC. Fresh hepatocytes were plated on collagen-coated tissue culture plates or glass coverslips in Williams E complete media with additives (10% fetal bovine serum, 2 mM glutamine, […] insulin, 4 ng/ml glucagon, […] transferrin, 2.5 ng/ml sodium selenite, 10,000 U/ml penicillin, […] streptomycin, 50 g/ml gentamycin) for 3 h to ensure hepatocyte adherence to plates. Subsequently, hepatocytes were maintained in Williams E minimal media free from serum and growth factors for 24 h prior to treatment. Human hepatocellular carcinoma derived Huh7, and Hep3B, were cultured in Minimum Essential Medium Eagle (MEM); SNU-387 was cultured in Roswell Park Memorial Institute (RPMI) medium and PLC/PRF/5 cultured in Dulbecco's Modified Eagle's medium (DMEM). All maintenance culture media were supplemented with 10% fetal bovine serum (FBS), L-Glutamine (2 mM), penicillin (100 units/ml) and streptomycin ([…]) at 37° C. and 5% CO2. Cells were maintained in serum free media (containing 2 mM L-Glutamine, 100 units/ml penicillin and ([…])) streptomycin for 24 h prior to treatment. Total protein extracts were obtained by homogenizing cells in total lysis buffer (50 mM Tris-HCl, pH 7.5, 0.5 M NaCl, 2 mM EGTA, 2 mM EDTA, 1.0% Triton X-100, 0.25% Deoxycholate, 1 m/ml pepstatin, 1.0 m/ml leupeptin, 1.0 m/ml aprotinin, 1.0 mM phenylmethylsulfonyl fluoride, 1.0 mM Dithiothreitol, 2.0 mM activated Na3VO4, and 2.0 mM NaF) and centrifuging at 14,000 rpm for 10 min (4° C.). Equal amounts of total proteins as determined by BCA protein Assay (Pierce, Rockford, Ill.) were analyzed by Western blotting. Blots were probed with antibody specific for a-tubulin or GAPDH to ensure equal loading of proteins in each lane.

Hep3B cells = test: BrdU incorporation (proliferation) in Hep3B cells; assay type: cell-based, human
Experimental: Light microscopic images (10X) of BrdU immunostained cells are also shown. Hep3B cells were maintained in serum-free conditions for 24 hours and were pre-treated with AF-353 (5 μM) for 30 minutes, prior to treatment with ATP (100 μM) for 24 hours. BrdU-positive cells are expressed as a percentage of total number of cells. Data represents mean±SEM, n=3-6, *p<0.05 vs untreated (un). To determine whether P2 purinergic receptor activation influences HCC cell proliferation, BrdU incorporation was assessed in HCC cells maintained in SFM for 24 hours and treated with ATP for 24 hours. […] Hep3B, 46%; SNU-387, 47% and PLC/PRF/5, 24%), identifying nucleotides as liver cancer cell mitogens (FIG. 7A). Normal human primary hepatocytes isolated from healthy adults (no known history of HCC) in suspension or freshly-frozen prior to shipment (Cryoport Systems, CA) were purchased from Triangle Research Labs, NC. […] Formalin-fixed and paraffin embedded liver sections from HCC patients were analyzed by immunohistochemistry with anti-P2X3 antibody (Abcam, Cambridge, Mass.). […] BrdU positive cells were counted and expressed as a percentage of the total number of cells in ten randomly selected high-power fields (20×) per coverslips.

human hepatocytes [2] = test: MTT assay of cell proliferation and viability, human hepatocytes; assay type: cell-based; conditions: 18 h treatment
Experimental: Normal human primary hepatocytes isolated from healthy adults (no known history of HCC) in suspension or freshly-frozen prior to shipment (Cryoport Systems, CA) were purchased from Triangle Research Labs, NC. Fresh hepatocytes were plated on collagen-coated tissue culture plates or glass coverslips in Williams E complete media with additives (10% fetal bovine serum, 2 mM glutamine, […] insulin, 4 ng/ml glucagon, […] transferrin, 2.5 ng/ml sodium selenite, 10,000 U/ml penicillin, […] streptomycin, 50 g/ml gentamycin) for 3 h to ensure hepatocyte adherence to plates. Subsequently, hepatocytes were maintained in Williams E minimal media free from serum and growth factors for 24 h prior to treatment. Human hepatocellular carcinoma derived Huh7, and Hep3B, were cultured in Minimum Essential Medium Eagle (MEM); SNU-387 was cultured in Roswell Park Memorial Institute (RPMI) medium and PLC/PRF/5 cultured in Dulbecco's Modified Eagle's medium (DMEM). All maintenance culture media were supplemented with 10% fetal bovine serum (FBS), L-Glutamine (2 mM), penicillin (100 units/ml) and streptomycin ([…]) at 37° C. and 5% CO2. […]
Cell viability was determined using the 3-(4, 5-dimethylthiazol-2-yl)-2,5-diphenyltetrazolium (MTT, Sigma) assays. […] After shaking the plates for 30 min, the absorbance at 570 nm was measured (background subtraction at […]).

Compound	effect on ATP-mediated induction of cyclin D3 and cyclin E expression (human hepatocytes [1]; AF-353 5 μM pre-treatment, ATP 24 h)	effect on ATP-mediated induction of BrdU incorporation (Hep3B cells; AF-353 5 μM pre-treatment 30 minutes, ATP 100 μM 24 hours)	increase in cell proliferation and viability (MTT) (human hepatocytes [2])	proliferation (BrdU incorporation) induced by ATP (Hep3B cells; SFM 24 hours, ATP 24 hours)	cyclin D3 protein expression (human hepatocytes [1]; ATPγS 24 h)	cyclin E protein expression (human hepatocytes [1]; ATPγS 24 h)
COc1cc(C(C)C)c(Oc2cnc(N)nc2N)cc1I [AF-353]	completely attenuated	completely attenuated; also recorded: attenuates				
Nc1ncnc2c1ncn2[C@@H]1O[C@H](COP(=O)(O)OP(=O)(O)OP(=O)(O)O)[C@@H](O)[C@H]1O [ATP]			27%	46%		
Nc1ncnc2c1ncn2[C@@H]1O[C@H](COP(=O)(O)OP(=O)(O)OP(O)(O)=S)[C@@H](O)[C@H]1O [ATPγS]			64%		2.0 fold	2.0 fold
